# Measured values taken from ChEMBL document CHEMBL5303763, “Data for DCP probe BI-3802” (2023).
# How the values were obtained:
# [1] = target: Beta-1 adrenergic receptor (Homo sapiens) (UniProt P08588); experiment: BETA1/HUM Eurofins SafetyScreen44 (BI); conditions: Compound concentration 10.0 uM
# [2] = target: Cannabinoid receptor 2 (Homo sapiens) (UniProt P34972); experiment: CB2/PERIPH/H Eurofins SafetyScreen44 (BI); conditions: Compound concentration 10.0 uM
# [3] = target: GABA-A receptor; anion channel (Rattus norvegicus) (UniProt O09028+P15431+P18506+P18508+P19969+P20236+P23574+P23576+P28471+P28473+P30191+P62813+P63079+P63138+Q91ZM7+Q9ES14); experiment: BZD/CENTR/R Eurofins SafetyScreen44 (BI); type: protein-complex assay; conditions: Compound concentration 10.0 uM
# [4] = target: D(1A) dopamine receptor (Homo sapiens) (UniProt P21728); experiment: D1/H Eurofins SafetyScreen44 (BI); conditions: filed as antagonist, Compound concentration 10.0 uM
# [5] = target: Beta-2 adrenergic receptor (Homo sapiens) (UniProt P07550); experiment: BETA2/HUM Eurofins SafetyScreen44 (BI); conditions: filed as antagonist, Compound concentration 10.0 uM
# [6] = target: Angiotensin-converting enzyme (Homo sapiens) (UniProt P12821); experiment: ACE(HU_AMTCH400) Eurofins SafetyScreen44 (BI); conditions: Compound concentration 10.0 uM
# Angiotensin-converting enzyme (Homo sapiens), sequence (P12821 whole entry): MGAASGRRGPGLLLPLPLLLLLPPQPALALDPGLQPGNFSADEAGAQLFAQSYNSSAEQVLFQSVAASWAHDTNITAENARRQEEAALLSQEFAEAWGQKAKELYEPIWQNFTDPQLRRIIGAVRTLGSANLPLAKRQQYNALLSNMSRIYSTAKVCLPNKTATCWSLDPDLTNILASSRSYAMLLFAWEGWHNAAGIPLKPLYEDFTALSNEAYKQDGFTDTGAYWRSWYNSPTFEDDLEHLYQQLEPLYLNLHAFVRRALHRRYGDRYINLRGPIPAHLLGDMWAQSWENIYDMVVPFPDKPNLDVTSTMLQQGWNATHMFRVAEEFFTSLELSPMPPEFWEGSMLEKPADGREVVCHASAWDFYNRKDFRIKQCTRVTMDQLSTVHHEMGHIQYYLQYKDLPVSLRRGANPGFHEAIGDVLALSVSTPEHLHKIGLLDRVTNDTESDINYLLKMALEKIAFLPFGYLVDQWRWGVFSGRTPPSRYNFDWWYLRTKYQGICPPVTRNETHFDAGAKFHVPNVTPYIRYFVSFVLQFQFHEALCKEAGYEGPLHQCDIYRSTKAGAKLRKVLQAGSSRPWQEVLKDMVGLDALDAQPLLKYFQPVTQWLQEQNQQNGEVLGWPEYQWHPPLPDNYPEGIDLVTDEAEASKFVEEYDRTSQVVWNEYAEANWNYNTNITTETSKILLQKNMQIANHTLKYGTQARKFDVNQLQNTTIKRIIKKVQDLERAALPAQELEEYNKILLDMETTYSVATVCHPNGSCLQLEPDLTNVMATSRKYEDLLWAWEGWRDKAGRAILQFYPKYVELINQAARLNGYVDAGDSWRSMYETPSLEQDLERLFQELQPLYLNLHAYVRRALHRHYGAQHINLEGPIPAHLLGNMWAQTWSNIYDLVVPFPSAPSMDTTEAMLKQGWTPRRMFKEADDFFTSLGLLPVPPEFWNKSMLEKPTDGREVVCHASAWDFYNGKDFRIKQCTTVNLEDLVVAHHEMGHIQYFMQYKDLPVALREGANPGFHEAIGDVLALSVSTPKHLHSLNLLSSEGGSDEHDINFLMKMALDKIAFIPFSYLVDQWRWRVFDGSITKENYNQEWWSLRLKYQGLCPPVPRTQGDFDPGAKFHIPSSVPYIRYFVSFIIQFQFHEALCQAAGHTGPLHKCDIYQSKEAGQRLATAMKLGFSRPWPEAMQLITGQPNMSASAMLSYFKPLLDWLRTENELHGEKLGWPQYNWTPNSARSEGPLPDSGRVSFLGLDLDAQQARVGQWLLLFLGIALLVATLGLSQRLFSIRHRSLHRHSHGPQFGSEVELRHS
# [7] = target: Adenosine receptor A2a (Homo sapiens) (UniProt P29274); experiment: A2A/H Eurofins SafetyScreen44 (BI); conditions: filed as antagonist, Compound concentration 10.0 uM
# [8] = target: Sodium-dependent noradrenaline transporter (Homo sapiens) (UniProt P23975); experiment: NEUP/H Eurofins SafetyScreen44 (BI); conditions: Compound concentration 10.0 uM
# [9] = target: Mu-type opioid receptor (Homo sapiens) (UniProt P35372); experiment: MU/H Eurofins SafetyScreen44 (BI); conditions: Compound concentration 10.0 uM
# [10] = target: hERG (KCNH2) (Homo sapiens, UniProt Q12809); experiment: HERG_DOFETILIDE Eurofins SafetyScreen44 (BI); conditions: probe [3H] Dofetilide, compound concentration 10 uM, read-out: % Ctrl
# [11] = target: Histamine H1 receptor (Homo sapiens) (UniProt P35367); experiment: H1/PYRIL/HS Eurofins SafetyScreen44 (BI); conditions: Compound concentration 10.0 uM
# [12] = target: T1, 5-hydroxytryptamine receptor 3A (Homo sapiens) (UniProt P46098); experiment: 5HT3/H Eurofins SafetyScreen44 (BI); conditions: Compound concentration 10.0 uM
# T1 sequence (whole entry): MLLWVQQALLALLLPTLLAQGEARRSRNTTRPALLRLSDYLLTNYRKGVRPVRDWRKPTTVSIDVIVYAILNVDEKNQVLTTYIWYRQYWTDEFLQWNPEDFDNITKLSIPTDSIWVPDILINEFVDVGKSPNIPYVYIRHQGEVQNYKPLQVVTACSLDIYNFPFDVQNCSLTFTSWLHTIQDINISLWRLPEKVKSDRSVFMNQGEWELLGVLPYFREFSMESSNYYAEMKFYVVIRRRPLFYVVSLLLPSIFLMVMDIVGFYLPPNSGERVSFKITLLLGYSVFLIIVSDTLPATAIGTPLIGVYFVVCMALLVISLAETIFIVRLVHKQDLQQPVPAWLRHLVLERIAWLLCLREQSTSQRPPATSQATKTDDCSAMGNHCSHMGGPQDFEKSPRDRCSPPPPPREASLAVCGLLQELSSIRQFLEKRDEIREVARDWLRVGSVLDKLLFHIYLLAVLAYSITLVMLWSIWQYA
# [13] = target: 5-hydroxytryptamine receptor 2A (Homo sapiens) (UniProt P28223); experiment: 5HT2AH_AGON Eurofins SafetyScreen44 (BI); conditions: filed as agonist, Compound concentration 10.0 uM
# [14] = target: Vasopressin V1a receptor (Homo sapiens) (UniProt P37288); experiment: V1A/HUM Eurofins SafetyScreen44 (BI); conditions: Compound concentration 10.0 uM
# [15] = target: D(2) dopamine receptor (Homo sapiens) (UniProt P14416); experiment: D2SH_AGON Eurofins SafetyScreen44 (BI); conditions: filed as agonist, Compound concentration 10.0 uM
# D(2) dopamine receptor (Homo sapiens), sequence (P14416 whole entry): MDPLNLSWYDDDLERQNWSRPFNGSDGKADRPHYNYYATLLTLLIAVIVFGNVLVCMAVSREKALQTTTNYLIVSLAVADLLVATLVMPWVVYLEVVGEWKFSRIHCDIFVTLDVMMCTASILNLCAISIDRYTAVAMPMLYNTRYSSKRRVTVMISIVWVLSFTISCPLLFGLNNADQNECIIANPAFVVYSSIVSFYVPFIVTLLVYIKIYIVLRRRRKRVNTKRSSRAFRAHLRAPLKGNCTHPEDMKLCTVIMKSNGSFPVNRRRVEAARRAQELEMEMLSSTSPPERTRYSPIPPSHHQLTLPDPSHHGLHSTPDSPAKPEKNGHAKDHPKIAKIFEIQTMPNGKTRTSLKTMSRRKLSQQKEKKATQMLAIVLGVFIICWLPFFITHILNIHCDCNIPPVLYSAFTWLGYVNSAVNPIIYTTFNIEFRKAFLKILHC
# [16] = target: Endothelin-1 receptor (Homo sapiens) (UniProt P25101); experiment: ETA/H Eurofins SafetyScreen44 (BI); conditions: Compound concentration 10.0 uM
# Endothelin-1 receptor (Homo sapiens), sequence (P25101 whole entry): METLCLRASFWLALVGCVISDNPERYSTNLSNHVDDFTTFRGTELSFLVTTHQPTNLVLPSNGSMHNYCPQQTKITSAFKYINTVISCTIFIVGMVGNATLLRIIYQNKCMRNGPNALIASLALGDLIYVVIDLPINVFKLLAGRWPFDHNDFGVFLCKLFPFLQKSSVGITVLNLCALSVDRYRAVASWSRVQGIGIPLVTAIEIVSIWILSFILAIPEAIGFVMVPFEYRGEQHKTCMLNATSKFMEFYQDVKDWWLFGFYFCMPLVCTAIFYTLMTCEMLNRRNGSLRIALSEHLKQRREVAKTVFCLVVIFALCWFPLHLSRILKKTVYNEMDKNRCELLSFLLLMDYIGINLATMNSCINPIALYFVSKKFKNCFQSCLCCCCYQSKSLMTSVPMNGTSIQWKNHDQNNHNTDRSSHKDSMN
# [17] = target: Sodium-dependent dopamine transporter (Homo sapiens) (UniProt Q01959); experiment: DATRANS/HUM Eurofins SafetyScreen44 (BI); conditions: Compound concentration 10.0 uM
# Sodium-dependent dopamine transporter (Homo sapiens), sequence (Q01959 whole entry): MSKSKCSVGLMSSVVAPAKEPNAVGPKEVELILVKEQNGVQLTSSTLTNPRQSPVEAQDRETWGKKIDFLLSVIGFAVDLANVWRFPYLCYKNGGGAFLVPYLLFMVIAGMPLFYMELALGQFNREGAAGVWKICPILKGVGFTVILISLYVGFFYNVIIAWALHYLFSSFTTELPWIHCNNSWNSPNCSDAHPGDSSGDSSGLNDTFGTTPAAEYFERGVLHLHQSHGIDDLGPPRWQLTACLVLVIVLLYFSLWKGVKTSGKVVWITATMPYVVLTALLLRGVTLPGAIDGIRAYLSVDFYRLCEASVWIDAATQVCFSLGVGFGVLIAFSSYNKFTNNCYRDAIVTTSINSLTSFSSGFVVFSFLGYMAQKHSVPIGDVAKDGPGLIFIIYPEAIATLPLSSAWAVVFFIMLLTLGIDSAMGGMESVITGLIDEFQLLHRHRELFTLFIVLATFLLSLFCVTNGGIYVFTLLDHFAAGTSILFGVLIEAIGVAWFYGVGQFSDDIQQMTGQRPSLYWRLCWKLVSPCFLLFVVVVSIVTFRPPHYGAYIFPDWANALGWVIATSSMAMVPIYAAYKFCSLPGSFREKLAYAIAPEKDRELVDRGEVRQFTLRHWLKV
# [18] = target: Histamine H2 receptor (Homo sapiens) (UniProt P25021); experiment: H2/APT/HS Eurofins SafetyScreen44 (BI); conditions: filed as antagonist, Compound concentration 10.0 uM
# [19] = target: Delta-type opioid receptor (Homo sapiens) (UniProt P41143); experiment: DELTA2/H Eurofins SafetyScreen44 (BI); conditions: Compound concentration 10.0 uM
# [20] = target: voltage-gated Na+ channel (site 2) (Rattus norvegicus, UniProt F1LQQ7+O08562+O88420+O88457+P04774+P04775+P08104+P15389+P15390+Q62968); experiment: NA+/SITE2/R Eurofins SafetyScreen44 (BI); type: protein assay; conditions: rat brain, probe [3H]batrachotoxinin, compound concentration 10 uM, read-out: % Ctrl
# [21] = target: cGMP-inhibited 3',5'-cyclic phosphodiesterase 3A (Homo sapiens) (UniProt Q14432); experiment: PDE3A Eurofins SafetyScreen44 (BI); conditions: Compound concentration 10.0 uM
# [22] = target: Muscarinic acetylcholine receptor M3 (Homo sapiens) (UniProt P20309); experiment: M3/H Eurofins SafetyScreen44 (BI); conditions: Compound concentration 10.0 uM
# Muscarinic acetylcholine receptor M3 (Homo sapiens), sequence (P20309 whole entry, looked up): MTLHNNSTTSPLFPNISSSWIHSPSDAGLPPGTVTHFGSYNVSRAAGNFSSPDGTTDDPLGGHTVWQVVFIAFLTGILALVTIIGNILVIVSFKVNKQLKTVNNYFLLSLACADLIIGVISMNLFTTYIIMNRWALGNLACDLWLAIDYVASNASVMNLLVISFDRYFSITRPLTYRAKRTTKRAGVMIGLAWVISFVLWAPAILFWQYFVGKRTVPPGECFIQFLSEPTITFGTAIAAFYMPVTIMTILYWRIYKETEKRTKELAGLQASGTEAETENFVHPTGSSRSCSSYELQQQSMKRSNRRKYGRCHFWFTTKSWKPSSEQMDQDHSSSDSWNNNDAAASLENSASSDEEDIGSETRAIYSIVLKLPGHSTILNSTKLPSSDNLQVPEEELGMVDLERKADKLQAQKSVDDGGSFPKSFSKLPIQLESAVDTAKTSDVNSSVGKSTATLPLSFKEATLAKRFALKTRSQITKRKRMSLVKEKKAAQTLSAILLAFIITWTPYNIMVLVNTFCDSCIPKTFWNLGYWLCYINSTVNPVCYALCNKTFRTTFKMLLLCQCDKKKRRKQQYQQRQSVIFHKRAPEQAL
# [23] = target: Muscarinic acetylcholine receptor M1 (Homo sapiens) (UniProt P11229); experiment: M1/H Eurofins SafetyScreen44 (BI); conditions: Compound concentration 10.0 uM
# Muscarinic acetylcholine receptor M1 (Homo sapiens), sequence (P11229 whole entry): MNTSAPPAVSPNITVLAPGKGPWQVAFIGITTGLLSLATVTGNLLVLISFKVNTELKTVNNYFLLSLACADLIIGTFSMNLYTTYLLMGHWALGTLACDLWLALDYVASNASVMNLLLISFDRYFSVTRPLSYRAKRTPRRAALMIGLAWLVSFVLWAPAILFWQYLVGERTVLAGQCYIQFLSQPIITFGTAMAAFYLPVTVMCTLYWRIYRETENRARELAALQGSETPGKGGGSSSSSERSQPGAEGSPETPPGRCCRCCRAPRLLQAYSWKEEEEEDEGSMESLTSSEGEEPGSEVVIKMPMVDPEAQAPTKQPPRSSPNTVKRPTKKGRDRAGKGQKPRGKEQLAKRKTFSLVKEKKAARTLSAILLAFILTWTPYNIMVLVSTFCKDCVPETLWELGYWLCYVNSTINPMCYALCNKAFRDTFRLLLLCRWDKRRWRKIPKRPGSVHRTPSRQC
# [24] = target: T2, Muscarinic acetylcholine receptor M2 (Homo sapiens) (UniProt P08172); experiment: M2/H Eurofins SafetyScreen44 (BI); conditions: filed as antagonist, Compound concentration 10.0 uM
# T2 sequence (whole entry): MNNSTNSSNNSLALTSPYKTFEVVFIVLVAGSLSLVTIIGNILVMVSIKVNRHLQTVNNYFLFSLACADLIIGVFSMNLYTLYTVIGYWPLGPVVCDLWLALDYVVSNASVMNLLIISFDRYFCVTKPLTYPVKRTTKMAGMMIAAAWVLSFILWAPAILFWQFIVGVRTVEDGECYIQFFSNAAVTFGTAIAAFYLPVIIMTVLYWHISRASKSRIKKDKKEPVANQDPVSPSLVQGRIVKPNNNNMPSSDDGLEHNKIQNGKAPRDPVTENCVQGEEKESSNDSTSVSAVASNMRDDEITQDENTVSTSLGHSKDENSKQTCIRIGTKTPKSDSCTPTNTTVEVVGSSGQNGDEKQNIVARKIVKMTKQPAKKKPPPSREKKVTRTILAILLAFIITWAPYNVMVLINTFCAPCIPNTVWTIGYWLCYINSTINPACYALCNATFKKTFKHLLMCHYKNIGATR
# [25] = target: Glucocorticoid receptor (Homo sapiens) (UniProt P04150); experiment: GCORTICOID/H Eurofins SafetyScreen44 (BI); conditions: Compound concentration 10.0 uM
# [26] = target: Neuronal acetylcholine receptor; alpha4/beta2 (Homo sapiens) (UniProt P17787+P43681); experiment: N_NEURO_A4B2 Eurofins SafetyScreen44 (BI); type: protein-complex assay; conditions: filed as agonist, Compound concentration 10.0 uM
# [27] = target: Glutamate NMDA receptor (Rattus norvegicus) (UniProt P35439+Q00959+Q00960+Q00961+Q62645+Q8VHN2+Q9R1M7); experiment: NMDA/R Eurofins SafetyScreen44 (BI); type: protein-complex assay; conditions: Compound concentration 10.0 uM
# [28] = target: MAO-A (Amine oxidase [flavin-containing] A) (Rattus norvegicus, UniProt P21396); experiment: MAO-A_ANTAG Eurofins SafetyScreen44 (BI); parameters: scale not given: the % may be the effect or the level left; conditions: compound concentration 10 uM, read-out: % Ctrl
# MAO-A (Amine oxidase [flavin-containing] A), sequence (P21396 whole entry): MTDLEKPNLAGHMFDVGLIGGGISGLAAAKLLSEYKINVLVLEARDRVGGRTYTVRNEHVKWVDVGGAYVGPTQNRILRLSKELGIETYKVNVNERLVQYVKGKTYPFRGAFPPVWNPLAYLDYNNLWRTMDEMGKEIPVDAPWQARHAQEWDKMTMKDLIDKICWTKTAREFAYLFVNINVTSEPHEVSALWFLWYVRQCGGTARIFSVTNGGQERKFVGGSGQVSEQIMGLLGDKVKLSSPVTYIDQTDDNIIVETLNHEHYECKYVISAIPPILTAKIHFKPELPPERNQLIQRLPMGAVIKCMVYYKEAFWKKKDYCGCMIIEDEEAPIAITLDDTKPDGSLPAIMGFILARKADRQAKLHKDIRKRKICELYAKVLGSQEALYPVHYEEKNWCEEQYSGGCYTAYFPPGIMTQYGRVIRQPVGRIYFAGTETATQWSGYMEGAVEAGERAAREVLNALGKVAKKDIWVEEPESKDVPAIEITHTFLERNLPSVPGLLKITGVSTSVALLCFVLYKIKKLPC
# Beta-1 adrenergic receptor (Homo sapiens), sequence (P08588 whole entry, looked up): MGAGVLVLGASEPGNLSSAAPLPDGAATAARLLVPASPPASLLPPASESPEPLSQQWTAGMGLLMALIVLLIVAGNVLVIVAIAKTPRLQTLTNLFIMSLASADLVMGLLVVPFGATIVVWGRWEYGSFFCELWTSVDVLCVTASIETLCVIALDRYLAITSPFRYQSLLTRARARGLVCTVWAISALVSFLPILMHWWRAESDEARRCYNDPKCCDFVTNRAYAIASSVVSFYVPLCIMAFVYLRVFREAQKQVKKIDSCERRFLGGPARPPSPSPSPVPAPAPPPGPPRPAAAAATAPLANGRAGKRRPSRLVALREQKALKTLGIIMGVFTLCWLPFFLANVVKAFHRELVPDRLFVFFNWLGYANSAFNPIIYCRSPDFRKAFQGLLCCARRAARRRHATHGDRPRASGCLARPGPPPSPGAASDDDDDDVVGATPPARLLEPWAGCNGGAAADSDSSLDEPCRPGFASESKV
SMILES,residual activity [1] [%],residual activity [2] [%],residual activity [3] [%],residual activity [4] [%],residual activity [5] [%],residual activity [6] [%],residual activity [7] [%],residual activity [8] [%],residual activity [9] [%],activity at 10 µM [10],residual activity [11] [%],residual activity [12] [%],residual activity [13] [%],residual activity [14] [%],residual activity [15] [%],residual activity [16] [%],residual activity [17] [%],residual activity [18] [%],residual activity [19] [%],activity at 10 µM [20],other results
CNC(=O)COc1cc2cc(Nc3nc(N4C[C@H](C)C[C@H](C)C4)ncc3Cl)ccc2n(C)c1=O,99,96,97,106,101,106,92,99,81,76% (not active),105,101,112,85,115,100,88,110,100,114% (not active),residual activity [21]: 95%; residual activity [22]: 110%; residual activity [23]: 93%; residual activity [24]: 102%; residual activity [25]: 99%; residual activity [26]: 107%; residual activity [27]: 78%; activity at 10 µM [28]: 89% (not active)
C[C@@H]1C[C@H](C)CN(c2ncc(Cl)c(Nc3ccc4c(c3)cc(OC(C)(C)C(=O)O)c(=O)n4C)n2)C1,99,103,147,92,89,111,107,102,44,95% (not active),86,95,125,97,86,111,100,121,97,88% (not active),residual activity [21]: 99%; residual activity [22]: 111%; residual activity [23]: 128%; residual activity [24]: 111%; residual activity [25]: 97%; residual activity [26]: 106%; residual activity [27]: 88%; activity at 10 µM [28]: 96% (not active)
